Assay results as given in the supplement of paper PMC10307832.

Key:
Test in all cases: relative viability (nuclei count vs DMSO), 5 days (fraction); higher = more cells survive
A-427 = system: A-427
Summary of the method: (§1)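 Relative viability is defined as nuclei in treated wells over nuclei in vehicle wells. Duplicate plates were run and medians reported. Lung cancer cell lines in 1536-well plates were dosed by pin tool one day after seeding, with one drug or with a fixed anchor-drug dose plus five library-drug doses (not always all listed) in √10 steps, and nuclei were counted after 5 days.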

A549 = system: A549
Summary of the method: as §1

CAL-12T = system: CAL-12T
Summary of the method: as §1

Calu-6 = system: Calu-6
Summary of the method: as §1

EBC-1 = system: EBC-1
Summary of the method: as §1

IA-LM = system: IA-LM
Summary of the method: as §1

LK-2 = system: LK-2
Summary of the method: as §1

NCI-H1299 = system: NCI-H1299
Summary of the method: as §1

NCI-H1648 = system: NCI-H1648
Summary of the method: as §1

NCI-H1650 = system: NCI-H1650
Summary of the method: as §1

NCI-H1703 = system: NCI-H1703
Summary of the method: as §1

NCI-H1734 = system: NCI-H1734
Summary of the method: as §1

NCI-H2009 = system: NCI-H2009
Summary of the method: as §1

UMC-11 = system: UMC-11
Summary of the method: as §1

## COc1nc(C)cnc1NS(=O)(=O)c1cccnc1-c1ccc(-c2nnco2)cc1 [Zibotentan] + O=C(c1cc(Cc2n[nH]c(=O)c3ccccc23)ccc1F)N1CCN(C(=O)C2CC2)CC1 [Olaparib] (partner 8 µM)
A-427; first compound 0.08 µM
  relative viability: 0.755
A-427; first compound 0.253 µM
  relative viability: 0.704
A-427; first compound 0.8 µM
  relative viability: 0.64
A-427; first compound 2.53 µM
  relative viability: 0.799
A549; first compound 0.08 µM
  relative viability: 0.365
A549; first compound 0.253 µM
  relative viability: 0.31
A549; first compound 0.8 µM
  relative viability: 0.333
A549; first compound 2.53 µM
  relative viability: 0.32
CAL-12T; first compound 0.08 µM
  relative viability: 0.742
CAL-12T; first compound 0.253 µM
  relative viability: 0.67
CAL-12T; first compound 0.8 µM
  relative viability: 0.768
CAL-12T; first compound 2.53 µM
  relative viability: 0.664
Calu-6; first compound 0.08 µM
  relative viability: 0.61
Calu-6; first compound 0.253 µM
  relative viability: 0.518
Calu-6; first compound 0.8 µM
  relative viability: 0.621
Calu-6; first compound 2.53 µM
  relative viability: 0.555
EBC-1; first compound 0.08 µM
  relative viability: 0.698
EBC-1; first compound 0.253 µM
  relative viability: 0.713
EBC-1; first compound 0.8 µM
  relative viability: 0.827
EBC-1; first compound 2.53 µM
  relative viability: 0.651
IA-LM; first compound 0.08 µM
  relative viability: 0.966
IA-LM; first compound 0.253 µM
  relative viability: 0.86
IA-LM; first compound 0.8 µM
  relative viability: 0.938
IA-LM; first compound 2.53 µM
  relative viability: 0.824
LK-2; first compound 0.08 µM
  relative viability: 0.945
LK-2; first compound 0.253 µM
  relative viability: 0.521
LK-2; first compound 0.8 µM
  relative viability: 0.75
LK-2; first compound 2.53 µM
  relative viability: 0.718
NCI-H1299; first compound 0.08 µM
  relative viability: 1.01
NCI-H1299; first compound 0.253 µM
  relative viability: 0.906
NCI-H1299; first compound 0.8 µM
  relative viability: 0.973
NCI-H1299; first compound 2.53 µM
  relative viability: 1
NCI-H1648; first compound 0.08 µM
  relative viability: 0.853
NCI-H1648; first compound 0.253 µM
  relative viability: 0.503
NCI-H1648; first compound 0.8 µM
  relative viability: 0.85
NCI-H1648; first compound 2.53 µM
  relative viability: 0.954
NCI-H1650; first compound 0.08 µM
  relative viability: 0.803
NCI-H1650; first compound 0.8 µM
  relative viability: 0.757
NCI-H1650; first compound 2.53 µM
  relative viability: 0.682
NCI-H1703; first compound 0.08 µM
  relative viability: 0.476
NCI-H1703; first compound 0.253 µM
  relative viability: 0.368
NCI-H1703; first compound 0.8 µM
  relative viability: 0.435
NCI-H1703; first compound 2.53 µM
  relative viability: 0.292
NCI-H1734; first compound 0.08 µM
  relative viability: 0.593
NCI-H1734; first compound 0.253 µM
  relative viability: 0.588
NCI-H1734; first compound 0.8 µM
  relative viability: 0.653
NCI-H1734; first compound 2.53 µM
  relative viability: 0.699
NCI-H2009; first compound 0.08 µM
  relative viability: 0.688
NCI-H2009; first compound 0.253 µM
  relative viability: 0.589
NCI-H2009; first compound 0.8 µM
  relative viability: 0.671
NCI-H2009; first compound 2.53 µM
  relative viability: 0.787
UMC-11; first compound 0.08 µM
  relative viability: 0.321
UMC-11; first compound 0.253 µM
  relative viability: 0.409
UMC-11; first compound 0.8 µM
  relative viability: 0.44
UMC-11; first compound 2.53 µM
  relative viability: 0.438

## O=c1cc(-c2cccc3c2Sc2ccccc2S3)oc(N2CCOCC2)c1 + O=C(c1cc(Cc2n[nH]c(=O)c3ccccc23)ccc1F)N1CCN(C(=O)C2CC2)CC1 [Olaparib] (partner 8 µM)
A-427; first compound 0.08 µM
  relative viability: 0.7
A-427; first compound 0.253 µM
  relative viability: 0.776
A-427; first compound 0.8 µM
  relative viability: 0.637
A-427; first compound 2.53 µM
  relative viability: 0.684
A-427; first compound 8 µM
  relative viability: 0.777
A549; first compound 0.08 µM
  relative viability: 0.224
A549; first compound 0.253 µM
  relative viability: 0.348
A549; first compound 0.8 µM
  relative viability: 0.277
A549; first compound 2.53 µM
  relative viability: 0.354
A549; first compound 8 µM
  relative viability: 0.363
CAL-12T; first compound 0.08 µM
  relative viability: 0.77
CAL-12T; first compound 0.253 µM
  relative viability: 0.738
CAL-12T; first compound 0.8 µM
  relative viability: 0.759
CAL-12T; first compound 2.53 µM
  relative viability: 0.731
CAL-12T; first compound 8 µM
  relative viability: 0.402
Calu-6; first compound 0.08 µM
  relative viability: 0.63
Calu-6; first compound 0.253 µM
  relative viability: 0.636
Calu-6; first compound 0.8 µM
  relative viability: 0.601
Calu-6; first compound 2.53 µM
  relative viability: 0.599
Calu-6; first compound 8 µM
  relative viability: 0.549
EBC-1; first compound 0.08 µM
  relative viability: 0.618
EBC-1; first compound 0.253 µM
  relative viability: 0.831
EBC-1; first compound 0.8 µM
  relative viability: 0.732
EBC-1; first compound 2.53 µM
  relative viability: 0.619
EBC-1; first compound 8 µM
  relative viability: 0.324
IA-LM; first compound 0.08 µM
  relative viability: 0.848
IA-LM; first compound 0.253 µM
  relative viability: 1.07
IA-LM; first compound 0.8 µM
  relative viability: 0.934
IA-LM; first compound 2.53 µM
  relative viability: 0.796
IA-LM; first compound 8 µM
  relative viability: 0.866
LK-2; first compound 0.08 µM
  relative viability: 0.833
LK-2; first compound 0.253 µM
  relative viability: 0.793
LK-2; first compound 0.8 µM
  relative viability: 0.79
LK-2; first compound 2.53 µM
  relative viability: 0.62
LK-2; first compound 8 µM
  relative viability: 0.749
NCI-H1299; first compound 0.08 µM
  relative viability: 0.951
NCI-H1299; first compound 0.253 µM
  relative viability: 1.05
NCI-H1299; first compound 0.8 µM
  relative viability: 1.04
NCI-H1299; first compound 2.53 µM
  relative viability: 1.02
NCI-H1299; first compound 8 µM
  relative viability: 0.909
NCI-H1648; first compound 0.253 µM
  relative viability: 1.01
NCI-H1648; first compound 0.8 µM
  relative viability: 0.781
NCI-H1648; first compound 8 µM
  relative viability: 1.2
NCI-H1650; first compound 0.08 µM
  relative viability: 0.702
NCI-H1650; first compound 0.253 µM
  relative viability: 0.8
NCI-H1650; first compound 0.8 µM
  relative viability: 0.53
NCI-H1650; first compound 2.53 µM
  relative viability: 0.782
NCI-H1650; first compound 8 µM
  relative viability: 0.734
NCI-H1703; first compound 0.08 µM
  relative viability: 0.314
NCI-H1703; first compound 0.253 µM
  relative viability: 0.445
NCI-H1703; first compound 0.8 µM
  relative viability: 0.406
NCI-H1703; first compound 2.53 µM
  relative viability: 0.246
NCI-H1703; first compound 8 µM
  relative viability: 0.227
NCI-H1734; first compound 0.08 µM
  relative viability: 0.628
NCI-H1734; first compound 0.253 µM
  relative viability: 0.659
NCI-H1734; first compound 0.8 µM
  relative viability: 0.713
NCI-H1734; first compound 8 µM
  relative viability: 0.647
NCI-H2009; first compound 0.08 µM
  relative viability: 0.746
NCI-H2009; first compound 0.253 µM
  relative viability: 0.731
NCI-H2009; first compound 0.8 µM
  relative viability: 0.798
NCI-H2009; first compound 2.53 µM
  relative viability: 0.662
NCI-H2009; first compound 8 µM
  relative viability: 0.765
UMC-11; first compound 0.08 µM
  relative viability: 0.365
UMC-11; first compound 0.253 µM
  relative viability: 0.74
UMC-11; first compound 0.8 µM
  relative viability: 0.325
UMC-11; first compound 2.53 µM
  relative viability: 0.344
UMC-11; first compound 8 µM
  relative viability: 0.42
